Data reported in the NIST ThermoML archive (doi:10.1021/je060291c).
Several values for one entry are separate records, joined by “and”; a condition that tells them apart may be missing. Equal entries are not always repeated. Numbers after ± are expanded uncertainties.

Test: wn = mass fraction of the nth substance listed
Conditions: Liquid, Pulse-echo method, w2 = 0.49

CC(F)(F)F [1,1,1-trifluoroethane] + FC(F)C(F)(F)F
speed of sound
Conditions | 288.18 K | 298.19 K | 308.19 K | 318.2 K | 328.17 K | 338.18 K
1290 kPa | – | 375.4 ± 1.3 m/s | – | – | – | –
1300 kPa | – | 375.4 ± 1.3 m/s and 375.5 ± 1.3 m/s | – | – | – | –
1360 kPa | – | 376.9 ± 1.3 m/s | – | – | – | –
1510 kPa | – | 379.6 ± 1.3 m/s | – | – | – | –
1630 kPa | – | 381.8 ± 1.3 m/s | – | – | – | –
1670 kPa | – | – | 324.1 ± 1.3 m/s and 324.2 ± 1.3 m/s | – | – | –
1740 kPa | – | – | 326 ± 1.3 m/s | – | – | –
1750 kPa | – | 384.2 ± 1.3 m/s | – | – | – | –
1840 kPa | – | – | 328.4 ± 1.3 m/s | – | – | –
2010 kPa | 440.2 ± 1.3 m/s | 388.7 ± 1.3 m/s | 332.4 ± 1.3 m/s | – | – | –
2120 kPa | – | – | – | 270.3 ± 1.4 m/s | – | –
2180 kPa | – | – | – | 272.6 ± 1.4 m/s | – | –
2250 kPa | 444 ± 1.3 m/s | 393 ± 1.3 m/s | 338 ± 1.3 m/s | 274.9 ± 1.4 m/s | – | –
2360 kPa | – | – | – | 278.2 ± 1.4 m/s | – | –
2510 kPa | 447.4 ± 1.3 m/s | 397.3 ± 1.3 m/s | 343.6 ± 1.3 m/s | 282.9 ± 1.4 m/s | – | –
2660 kPa | – | – | – | – | 211.8 ± 1.4 m/s and 211.9 ± 1.4 m/s | –
2750 kPa | 450.9 ± 1.3 m/s | 401.5 ± 1.3 m/s | 348.9 ± 1.3 m/s | 290.4 ± 1.4 m/s | 216.9 ± 1.4 m/s | –
2880 kPa | – | – | – | – | 223.4 ± 1.4 m/s | –
3010 kPa | 454.3 ± 1.3 m/s | 405.6 ± 1.3 m/s | 354 ± 1.3 m/s | 297.5 ± 1.3 m/s | 229.4 ± 1.4 m/s | –
3380 kPa | – | – | – | – | – | 154.6 ± 1.5 m/s
3440 kPa | – | – | – | – | – | 160.1 ± 1.5 m/s
3500 kPa | 460.9 ± 1.3 m/s | 413.4 ± 1.3 m/s | 363.8 ± 1.3 m/s | 310.3 ± 1.3 m/s | 249.7 ± 1.4 m/s | 165.9 ± 1.5 m/s
3660 kPa | – | – | – | – | – | 178.1 ± 1.5 m/s
3830 kPa | – | – | – | – | – | 189 ± 1.4 m/s
4000 kPa | 467.5 ± 1.3 m/s | 421.1 ± 1.3 m/s | 373.1 ± 1.3 m/s | 322.1 ± 1.3 m/s | 266.3 ± 1.3 m/s | 199.1 ± 1.4 m/s
4250 kPa | – | – | – | – | – | 211.1 ± 1.4 m/s
4500 kPa | 473.5 ± 1.3 m/s | 428.4 ± 1.3 m/s | 381.8 ± 1.3 m/s | 333 ± 1.3 m/s | 280.9 ± 1.3 m/s | 221.8 ± 1.3 m/s
5000 kPa | 479.7 ± 1.3 m/s | 435.4 ± 1.3 m/s | 390.1 ± 1.3 m/s | 343.1 ± 1.3 m/s | 294 ± 1.3 m/s | 240.3 ± 1.3 m/s
6010 kPa | 491.5 ± 1.3 m/s | 448.7 ± 1.3 m/s | 405.6 ± 1.3 m/s | 361.7 ± 1.3 m/s | 316.6 ± 1.3 m/s | 269.8 ± 1.3 m/s
7010 kPa | 502.5 ± 1.3 m/s | 461.1 ± 1.3 m/s | 419.8 ± 1.3 m/s | 378.2 ± 1.3 m/s | 336.3 ± 1.3 m/s | 293.8 ± 1.3 m/s
8000 kPa | 513.1 ± 1.3 m/s | 473 ± 1.3 m/s | 433.3 ± 1.3 m/s | 393.4 ± 1.3 m/s | 353.7 ± 1.3 m/s and 354 ± 1.3 m/s and 353.9 ± 1.3 m/s | 314.4 ± 1.3 m/s
9000 kPa | 523.2 ± 1.3 m/s | 484.3 ± 1.3 m/s | 445.6 ± 1.3 m/s | 407.7 ± 1.3 m/s | 370 ± 1.3 m/s | 333 ± 1.3 m/s
10000 kPa | 532.9 ± 1.3 m/s | 494.9 ± 1.3 m/s | 457.5 ± 1.3 m/s | 420.9 ± 1.3 m/s | 384.7 ± 1.3 m/s | 349.3 ± 1.3 m/s
12000 kPa | 551.3 ± 1.3 m/s | 515.1 ± 1.3 m/s | 479.6 ± 1.3 m/s | 445 ± 1.3 m/s | 411.3 ± 1.3 m/s | 378.7 ± 1.3 m/s
14000 kPa | 568.6 ± 1.3 m/s | 533.7 ± 1.3 m/s | 499.8 ± 1.3 m/s | 466.9 ± 1.3 m/s | 435.1 ± 1.3 m/s | 404.3 ± 1.3 m/s
16010 kPa | 585 ± 1.3 m/s | 551.1 ± 1.3 m/s | 518.5 ± 1.3 m/s | 487 ± 1.3 m/s | 456.6 ± 1.3 m/s | 427.4 ± 1.3 m/s
18000 kPa | 600.2 ± 1.3 m/s | 567.6 ± 1.3 m/s | 536.1 ± 1.3 m/s | 505.5 ± 1.3 m/s | 476.5 ± 1.3 m/s | 448.3 ± 1.3 m/s
20000 kPa | 614.9 ± 1.3 m/s | 583.2 ± 1.3 m/s | 552.6 ± 1.3 m/s | 523 ± 1.3 m/s | 494.7 ± 1.3 m/s | 467.8 ± 1.3 m/s
23000 kPa | 635.8 ± 1.3 m/s | 605.1 ± 1.3 m/s | 575.7 ± 1.3 m/s | 547.4 ± 1.3 m/s | 520.4 ± 1.3 m/s | 494.6 ± 1.3 m/s
26000 kPa | 655.3 ± 1.3 m/s | 625.5 ± 1.3 m/s | 597.3 ± 1.3 m/s | 569.9 ± 1.3 m/s | 543.8 ± 1.3 m/s | 519 ± 1.3 m/s
29010 kPa | 673.8 ± 1.3 m/s | 645.1 ± 1.3 m/s | 617.4 ± 1.3 m/s | 591 ± 1.3 m/s | 565.9 ± 1.3 m/s | 541.7 ± 1.3 m/s
32000 kPa | 691.2 ± 1.3 m/s | 663.2 ± 1.3 m/s | 636.3 ± 1.3 m/s | 610.7 ± 1.3 m/s | 586.4 ± 1.3 m/s | 563 ± 1.3 m/s
35000 kPa | 708.3 ± 1.3 m/s | 680.8 ± 1.3 m/s | 654.6 ± 1.3 m/s and 654.3 ± 1.3 m/s | 629.4 ± 1.3 m/s | 605.5 ± 1.3 m/s and 605.8 ± 1.3 m/s | 583 ± 1.3 m/s
40000 kPa | 734.9 ± 1.3 m/s | 708.2 ± 1.3 m/s | 682.9 ± 1.3 m/s | 658.7 ± 1.3 m/s | 635.7 ± 1.3 m/s | 613.8 ± 1.3 m/s
45000 kPa | 759.7 ± 1.3 m/s | 734 ± 1.3 m/s | 709.3 ± 1.3 m/s | 685.8 ± 1.3 m/s | 663.5 ± 1.3 m/s | 642.4 ± 1.3 m/s
50000 kPa | 783.2 ± 1.3 m/s | 758 ± 1.3 m/s | 734 ± 1.3 m/s | 711.3 ± 1.3 m/s | 689.5 ± 1.3 m/s | 669 ± 1.3 m/s
55000 kPa | 805.1 ± 1.3 m/s | 780.7 ± 1.3 m/s and 780.9 ± 1.3 m/s | 757.3 ± 1.3 m/s and 757.1 ± 1.3 m/s | 734.9 ± 1.3 m/s | 714.1 ± 1.3 m/s | 693.9 ± 1.3 m/s
60000 kPa | 826.3 ± 1.3 m/s | 802.3 ± 1.3 m/s and 802.4 ± 1.3 m/s | 779.5 ± 1.3 m/s | 757.7 ± 1.3 m/s | 737.1 ± 1.3 m/s | 717.2 ± 1.3 m/s
65000 kPa | 846.7 ± 1.3 m/s | 823.1 ± 1.3 m/s | 800.7 ± 1.3 m/s | 779.3 ± 1.3 m/s | 759 ± 1.3 m/s | 739.8 ± 1.3 m/s

Conditions | speed of sound [m/s]
298.19 K | 375.4 ± 1.3
308.19 K | 324.2 ± 1.3
318.2 K | 270.3 ± 1.3
328.17 K | 211.8 ± 1.3
